# Measurements reported in patent publication US20250152591A1, “TREATMENT OF HEMATOLOGICAL MALIGNANCIES WITH MENIN INHIBITORS AND P-GLYCOPROTEIN INHIBITORS” (Kura Oncology, Inc., priority 2022, published 2025).
# Where two headings read alike, the source gives them in different places.
# Columns and labels:
# MV4;11-Control cell line = test: CellTiter-Glo cell viability assay, MV4;11-Control; assay type: cell-based; set-up: unit of the concentration uncertain
# Description: (§1) The influence of efflux pumps on the antitumor activity of the test compounds at steady state (more clinically relevant) were evaluated using P-gp-transfected AML cells (MV4;11 cells) in 6-day viability assays.
# (§2) A P-gp-expressing KMT2A(MLL)-rearranged cell line model was developed by lentiviral transduction of the MV4;11 parental cell line and then selection for either Luciferase ORF (MV4;11-Control) or P-gp ORF (MV4;11-PGP).
# (§3) […] Cell viability was measured by CellTiter-Glo® Luminescent Cell Viability Assay (CTG assay, Promega Corp.) and % Viability was quantified by normalizing to the luminescence values of DMSO-only treated cells. The dose-response curves and IC50's were calculated using GraphPad Prism 9.4.1.
# (§4) The measured luminescence in the live cells of the MV4;11-Control and MV4;11-PGP cells that were treated with Compound I only (+DMSO), Compound I+posaconazole […], and valspodar (1 mM) are shown in FIGS. 5A and 5B.
# (§5) In a second set of experiments, MV4;11-Control and MV4;11-PGP cell lines were treated as described above with five menin inhibitors, including Compound I, SNDX-5613, Compound A, Compound B, and Compound C, at concentrations ranging from 0 to 1000 nM. All tested compounds dropped in potency due to the P-gp expression as shown in FIGS. 6A-6J and in Tables 5 and 6 (indicated by increased IC50 values between “MV4;11-Control (Compound+DMSO)” and “MV4;11-PGP (Compound+DMSO)” entries).
# P-gp = P-gp (Homo sapiens, UniProt P08183); test: in vitro; settings: MDCK-MDR1, pH 7.4
# Description: MDCK epithelial cells stably transfected with the human MDR1 gene (the gene encoding for the efflux protein P-gp) were seeded on a Multiscreen™ plate (Millipore, MA, USA) and formed a confluent monolayer over 4 days prior to the experiment. To verify the MDR1-MDCK cell monolayers were properly formed, aliquots of the cell buffers were analyzed by fluorescence to determine the transport of the impermeable dye Lucifer Yellow. Any deviations from control values are reported.
# MDR1-MDCK cells were incubated with these buffers for 2 h, and the receiver side buffer was removed for analysis by LC-MS/MS.
# The rate of passage of the test compounds through this cell monolayer barrier from apical to basolateral (A→B) in this bi-directional transport assay was used to determine the apparent permeability coefficient (Papp). Receiver, donor, and dosing solution concentrations were quantified using a calibration curve prepared in transport buffer solution (pH 7.4). Papp is calculated as
# where dQ/dt is rate of permeation, C0 is initial concentration of test agent, and A is the area of monolayer (0.11 cm^2). The basolateral to apical (B→A) to apical to basolateral (A→B) apparent permeability coefficient ratio
# When RE>2 for a tested compound, the tested compound is a potential substrate for P-gp.
# Rantinidine, talinolol, warfarin, and loperamide (±2 μM elacridar) were tested as reference compounds and each was tested at a concentration of 10 μM.
# MV4;11-PGP cell line = test: CellTiter-Glo cell viability assay, MV4;11-PGP; assay type: cell-based; set-up: unit of the concentration uncertain
# Description: as §1, §2, §3, §4, §5
# OCI-AML3-PGP cell line = test: Cell viability assay, OCI-AML3-PGP; assay type: cell-based; set-up: unit of the concentration uncertain; settings: 168 h, 7 days
# Description: A third set of experiments was conducted in the cell line OCI-AML3, which carries the W288Cfs*12 mutation in NPM protein. The P-gp expressing OCI-AML3 cell line (OCI-AML3-PGP) and the Luciferase expressing OC-AML3 cell line (OCI-AML3-Control) were established by lentivirally transducing P-gp ORF or Luciferase ORF. Cells were treated with Compound I or SNDX-5613 for 7 days to assess the IC50 values.
# [1] = system: MV4;11 parental cell line; test: CellTiter-Glo cell viability assay, MV4;11 parental; assay type: cell-based; settings: Homo sapiens, MV4-11, 144 h; Compound I only, 0 to 1000 nM, 6 days, Table 3
# Description: as §1, §2
# The MV4;11 parental, MV4;11-Control, and MV4;11-PGP cells were seeded on a 96-well plate and the cell lines were treated with Compound I at doses ranging from 0 to 1000 nM for 6 days. Cell viability was measured by CellTiter-Glo® Luminescent Cell Viability Assay (CTG assay, Promega Corp.) and % Viability was quantified by normalizing to the luminescence values of DMSO-only treated cells. The dose-response curves and IC50's were calculated using GraphPad Prism 9.4.1.
# Chain of P-gp (P08183 whole entry): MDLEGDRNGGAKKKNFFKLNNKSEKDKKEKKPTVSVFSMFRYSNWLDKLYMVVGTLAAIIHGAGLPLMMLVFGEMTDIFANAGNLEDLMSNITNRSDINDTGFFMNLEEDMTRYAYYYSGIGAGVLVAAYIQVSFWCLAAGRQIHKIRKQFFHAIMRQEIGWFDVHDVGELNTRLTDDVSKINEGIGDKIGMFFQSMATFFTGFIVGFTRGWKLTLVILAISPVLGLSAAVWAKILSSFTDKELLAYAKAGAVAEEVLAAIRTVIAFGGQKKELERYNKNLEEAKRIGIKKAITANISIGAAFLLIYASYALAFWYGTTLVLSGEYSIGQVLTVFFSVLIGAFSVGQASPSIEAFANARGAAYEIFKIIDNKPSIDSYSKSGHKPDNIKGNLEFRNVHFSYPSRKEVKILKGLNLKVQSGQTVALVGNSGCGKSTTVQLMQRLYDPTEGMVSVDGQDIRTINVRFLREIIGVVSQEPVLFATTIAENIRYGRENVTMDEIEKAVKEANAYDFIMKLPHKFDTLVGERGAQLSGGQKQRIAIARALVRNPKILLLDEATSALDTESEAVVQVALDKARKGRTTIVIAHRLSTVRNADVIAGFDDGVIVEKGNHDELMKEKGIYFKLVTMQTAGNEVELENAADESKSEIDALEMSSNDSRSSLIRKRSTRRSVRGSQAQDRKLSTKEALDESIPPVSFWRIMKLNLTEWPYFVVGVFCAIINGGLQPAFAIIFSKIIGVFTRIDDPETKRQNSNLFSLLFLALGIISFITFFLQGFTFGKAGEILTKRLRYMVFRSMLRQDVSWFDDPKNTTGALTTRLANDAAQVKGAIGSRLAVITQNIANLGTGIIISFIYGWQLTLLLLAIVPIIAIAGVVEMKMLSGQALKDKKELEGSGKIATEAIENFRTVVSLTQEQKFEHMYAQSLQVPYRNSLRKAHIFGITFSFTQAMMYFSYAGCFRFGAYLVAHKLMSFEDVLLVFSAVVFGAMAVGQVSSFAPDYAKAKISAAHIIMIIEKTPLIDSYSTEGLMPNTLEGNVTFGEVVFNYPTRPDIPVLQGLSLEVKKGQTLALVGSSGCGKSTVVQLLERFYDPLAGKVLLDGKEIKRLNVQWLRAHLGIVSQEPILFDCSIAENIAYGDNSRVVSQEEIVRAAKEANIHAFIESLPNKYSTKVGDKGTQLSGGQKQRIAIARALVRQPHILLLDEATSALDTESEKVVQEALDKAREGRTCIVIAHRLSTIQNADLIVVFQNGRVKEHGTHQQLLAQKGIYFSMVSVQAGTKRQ
smiles,measurement,setting,value
CNc1nc(NC2CCN(Cc3ccc4c(cc(C#N)n4C[C@H](C)N4CCN(S(C)(=O)=O)CC4)c3C)CC2)c2cc(CC(F)(F)F)sc2n1 [Compound I],IC50,"MV4;11-Control cell line; 120 h, MV4;11-Control, 5 days, Table 4, read-out: IC50 (Compound I + DMSO)",7.2 nM
same,IC50,"MV4;11-Control cell line; 120 h, MV4;11-Control, posaconazole (1.5 μM), 5 days, Table 4, read-out: IC50 (Compound I + Posaconazole)",3.8 nM
same,IC50,"MV4;11-Control cell line; 120 h, MV4;11-Control, valspodar (1 μM), 5 days, Table 4, read-out: IC50 (Compound I + Valspodar)",6.1 nM
same,IC50,"MV4;11-Control cell line; 144 h, Compound I only, 0 to 1000 nM, 6 days, Table 3, read-out: IC50 MV4;11-Control",7.6 nM
same,IC50,"MV4;11-Control cell line; 144 h, second set of experiments, 0 to 1000 nM, Table 5, read-out: IC50 MV4;11-Control (Compound + DMSO)",6.05 nM
same,IC50,"MV4;11-Control cell line; 144 h, second set of experiments, 0 to 1000 nM, Table 6, read-out: IC50 MV4;11-Control (Compound + DMSO)",6.14 nM
same,IC50,"MV4;11-Control cell line; second set of experiments, posaconazole (1.5 (unit uncertain)), Table 5, read-out: IC50 MV4;11-Control (Compound + posaconazole)",3.76 nM
same,IC50,"MV4;11-Control cell line; second set of experiments, valspodar (1 (unit uncertain)), Table 6, read-out: IC50 MV4;11-Control (Compound + valspodar)",4.84 nM
same,Papp A→B at 2 h,P-gp,0.308 ×10⁻⁶ cm/s
same,Papp B→A at 2 h,P-gp,1.84 ×10⁻⁶ cm/s
same,IC50,"MV4;11-PGP cell line; 120 h, MV4;11-PGP, 5 days, Table 4, read-out: IC50 (Compound I + DMSO)",33 nM
same,IC50,"MV4;11-PGP cell line; 120 h, MV4;11-PGP, posaconazole (1.5 μM), 5 days, Table 4, read-out: IC50 (Compound I + Posaconazole)",7.1 nM
same,IC50,"MV4;11-PGP cell line; 120 h, MV4;11-PGP, valspodar (1 μM), 5 days, Table 4, read-out: IC50 (Compound I + Valspodar)",4.7 nM
same,IC50,"MV4;11-PGP cell line; 144 h, second set of experiments, 0 to 1000 nM, Table 5, read-out: IC50 MV4;11-PGP (Compound + DMSO)",19.1 nM
same,IC50,"MV4;11-PGP cell line; 144 h, second set of experiments, 0 to 1000 nM, Table 6, read-out: IC50 MV4;11-PGP (Compound + DMSO)",19.9 nM
same,IC50,"MV4;11-PGP cell line; second set of experiments, posaconazole (1.5 (unit uncertain)), Table 5, read-out: IC50 MV4;11-PGP (Compound + posaconazole)",5.79 nM
same,IC50,"MV4;11-PGP cell line; second set of experiments, valspodar (1 (unit uncertain)), Table 6, read-out: IC50 MV4;11-PGP (Compound + valspodar)",5.64 nM
same,IC50,"OCI-AML3-PGP cell line; Table 9, read-out: IC50 OCI-AML3-PGP (Compound + DMSO)",38.9 nM
same,IC50,"OCI-AML3-PGP cell line; Table 10, read-out: IC50 OCI-AML3-PGP (Compound + DMSO)",50.2 nM
same,IC50,"OCI-AML3-PGP cell line; posaconazole (0.75 (unit uncertain)), Table 9, read-out: IC50 OCI-AML3-PGP (Compound + posaconazole)",19.2 nM
same,IC50,"OCI-AML3-PGP cell line; valspodar (1 (unit uncertain)), Table 10, read-out: IC50 OCI-AML3-PGP (Compound + valspodar)",15.7 nM
same,IC50,[1],8.5 nM
